No end group written: not given here.
Tests used:
[1] = tested on: PC-3 tumor; experiment: Biodistribution of 111In-labelled peptides in PC-3 xenografts; format: in vivo, CD1 nu/nu mice; details: radioisotope-labelled peptide
Protocol: FIG. 4: Biodistribution of ^111In-labeled NODAGA-FnBPA5 and its engineered version NODAGA-FnBPA5.1 in PC-3 tumor-bearing CD1 nu/nu mice 24 hours after injection. Results are shown as averages of % injected activity per gram±SD (n=4).
(§1) Animal studies were carried out according to the Swiss Animal Protection Law under the license AG75700. For tumor implantation, 5×10^6 PC-3 cells in 100 μL PBS were injected subcutaneously into both shoulders of female CD1 nu/nu mice (Charles River, Germany) under isoflurane/oxygen anesthesia. Tumor growth was inspected regularly and tumors were measured using a caliper. Five weeks after tumor implantation, mice were injected via the tail vein with approximately 100-150 kBq of the corresponding ^111In-labelled radiotracers, previously diluted with PBS to a concentration of 1-1.5 MBq/mL. At 24 h p.i., mice were euthanized using CO2. The organs of interest were harvested, weighed and counted by means of gamma counter together with three standards containing 100 μL of the injection solution. The percentage of injected activity per gram (% IA/g) was calculated based on the average of the standards set at 100%.

[2] = target: T1, Fib1 (N-terminal 30 kDa fragment of fibronectin, SEQ ID NO: 14) (Homo sapiens, UniProt P02751); experiment: Affinity towards Fib1 by fluorescence polarization; format: binding; details: fluorescence polarization assay (Example 1, FIG. 1)
T1 construct: 6-His (C); made in house
T1 sequence (P02751 32-290): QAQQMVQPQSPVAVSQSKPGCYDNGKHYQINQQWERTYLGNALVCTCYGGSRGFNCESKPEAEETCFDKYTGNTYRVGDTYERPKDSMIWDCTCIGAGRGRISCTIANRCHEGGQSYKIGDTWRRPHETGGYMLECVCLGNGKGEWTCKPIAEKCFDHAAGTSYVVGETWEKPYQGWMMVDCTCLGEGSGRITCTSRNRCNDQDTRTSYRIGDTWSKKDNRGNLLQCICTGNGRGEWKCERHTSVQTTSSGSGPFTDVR
Protocol: FIG. 1: Affinity measurements of Cy5-labelled FnBPA5.1 and FnBPA5 towards the N-terminal 30 kDa fragment of Fibronectin (Fib1) according to SEQ ID NO: 14. Curves display triplicates measurements of fluorescence polarization. Error bars display standard deviations. Analysis was conducted using GraphPad Prism. KD is shown in nM.
Preferably, said affinity is measurable by using a fluorescence anisotropy assay, using a peptide with N-terminally appended Cy5 label (as described in Preparative Example 1). Detailed protocol for the measurement is included in Example 1.
For the affinity measurement experiment, Cy5-FnBPA5.1 (according to SEQ DI NO: 12) and Cy5-FnBPA5 (according to SEQ DI NO: 13) (48 nM) were mixed with different concentrations of Fib 1—N-terminal 30 kDa fragment of fibronectin according to SEQ ID NO: 14 (0 nM-4.5 μM) in PBS pH 7.4. Samples were incubated for 1 h (37° C., 70 rpm) and fluorescence polarization was measured in triplicates using the Pherastar FSX plate reader (BMG Labtech; Optic module: FP 590-50 675-50 675-50). […]

[3] = tested on: 67NR breast tumor; experiment: Biodistribution of 111In-labelled peptides in 67NR orthotopic and syngeneic breast tumor model; format: in vivo, Balb/c mice; details: radioisotope-labelled peptide, 67NR orthotopic and syngeneic breast tumor mice
Protocol: FIG. 5: Biodistribution of ^111In-labeled NODAGA-FnBPA5 and its engineered version NODAGA-FnBPA5.1 in 67NR tumor-bearing mice 24 hours after injection. Results are shown as averages of % injected activity per gram±SD (n=4).
as §1, with “implantation, 40′000 67NR” for “implantation, 5×10^6 PC-3”, “in 50” for “in 100”, “into the mammary fat pad at the 4th nipple” for “into both shoulders”, “female Balb/c” for “female CD1 nu/nu”, “caliper. Two” for “caliper. Five”

Gln-Val-Thr-Thr-Gly-Ser-Asn-Leu-Val-Glu-Phe-Thr-Glu-Glu-Ser-Leu-Gly-Ie-Val-Thr-Gly-Ala-Val-Ser-Asp-His-Thr-Thr-Val-Glu-Asp-Thr (QVTTGSNLVEFTEESLGIVTGAVSDHTTVEDT; not fully specified) [FnBPA5.1]
Uptake in tumors compared with FnBPA5 ([1]; PC3 xenograft mice): improved uptake in tumors
Uptake in spleen and liver compared with FnBPA5 ([1]; tumor model not given): lower uptake in spleen and liver
Affinity for Fib1 compared with FnBPA5 [2]: improved affinity
Uptake in tumors compared with FnBPA5 [3]: improved uptake in tumors

— patent US12559525B2, “Conjugated fibronectin-binding peptides for use in tumor or fibrosis diagnosis and therapy” (priority 2021, dated 2026)
